Assay results published in patent US11950617B2, “Remediation of toxins in biorefinery process streams” (priority 2017, dated 2024).

Columns and labels:
[1] = DON analysis of DDGS sources and mixed diets of the pig trial; settings: treated vs untreated DDGS
Source text: A treated mycotoxin in which the DON levels in DON-contaminated DDGS were reduced by the method described in Example 5 (1.5 gallons per minute of a 38% aqueous solution of SBS was supplied continuously into the feed line of the syrup tank) and samples of dried DDGS were collected, analyzed and tested for its effect on pig growth.
A total of 247 growing pigs (55.3±4.6 lb.) were housed at a wean-to-finish facility, randomly allotted to 18 pens (13-14 pigs/pen) containing one 3-hole feeder 2 free-access nipple drinkers, and assigned to one of 3 experimental diets: control, DONDDGS, and treated-DDGS. All experimental diets were corn/soybean meal based containing 30% DDGS (low DON, DON contaminated, and treated DON DDGS, respectively; Table 1).
All diets met or exceeded nutrient requirements for growing pigs based on NRC (2012) and provided ad libitum. Experimental diets were fed for 21 days. Samples of the DDGS and corn used in the diets were analyzed for DON. Samples of the mixed diets were collected at day 0 and 21 and analyzed for proximate analysis and DON.

[2] = Laboratory treatment of corn ethanol syrup with bisulfite in a Parr 4560 reactor; DON measured by NEOGEN VERATOX for DON 2/3 kit
Protocol: Encouraged by these initial test results, further testing was performed utilizing a design of experiments to determine an equation modeling the effect of time, temperature, and SBS in the treatment of syrup. Syrup from a corn ethanol biorefinery was obtained and processed in the laboratory. All thermal treatments were performed utilizing a Parr 4560 reactor and a combined total of 70 g of syrup and SBS per reaction. Reaction conditions were from 85° C. to 115° C.; for 2 to 6 hours; and 0 to 0.05 g sodium bisulfite per dry gram syrup. The results from this study indicated a correlation between the SBS loading and the reduction in syrup DON. The model predicts a greater than 85% reduction in syrup DON is likely if treatment in a commercial process syrup tank is utilized. It was calculated that at a plant that is currently producing DDGS with 14.5 ppm DON with a 95% reduction in syrup DON would produce DDGS with 4.6 ppm DON.
Syrup from a corn ethanol biorefinery was obtained and processed in the laboratory. Treatment was performed utilizing a Parr 4560 reactor and a combined total of 70 g of syrup and SBS per reaction. The reaction condition was carried out at 50° C. for 120 minutes and varying amounts of sodium bisulfite per dry gram syrup. The DON was measured by NEOGEN™ VERATOX™ for DON 2/3 kit.
Syrup from a corn ethanol biorefinery was obtained and processed in the laboratory. Treatment was performed utilizing a Parr 4560 reactor and a combined total of 70 g of syrup and SBS per reaction. The reaction condition was carried out at 85° C. for 30 minutes to 180 minutes using 0.048 grams sodium bisulfite per dry gram syrup. The DON was measured by NEOGEN™ VERATOX™ for DON 2/3 kit.
Syrup from a corn ethanol biorefinery was obtained and processed in the laboratory using a Parr 4560 reactor and combined with either 0.048 grams of SBS or ammonium bisulfite per dry gram of syrup. Ammonium bisulfite was a 65% aqueous solution of 95% ammonium bisulfite and 5% potassium bisulfite. The doses of the two reagents used were molar equivalent bisulfite doses. The reaction condition was carried out at 85° C. for 30, 60 and 90 minutes.

O=S([O-])O.[Na+] [SBS, sodium bisulfite]
reduction of DON content in DON-DDGS [1]: 37%
DON in the treated syrup as SBS dose increased (FIG. 4) ([2]; 50° C., 120 minutes, varying amounts of sodium bisulfite per dry gram syrup): reduced
DON in the treated syrup (FIG. 5) ([2]; 85° C., 30 minutes dwell time, 0.048 grams sodium bisulfite per dry gram syrup): less than 1 ppm
reduction in syrup DON predicted by the model ([2]; design-of-experiments model (time, temperature, SBS), treatment in a commercial process syrup tank): greater than 85%
DON reduction in the syrup stream ([2]; syrup treated with SBS at process temperatures for extended time periods): greater than 85%
